System: 556581-035-R-J1-PDC complex spheroid viability
Assay: Anticancer human tumor 556581-035-R-J1-PDC patient-derived ovarian carcinoma cell line growth inhibition
Settings: for IC50: curve of first compound; for viability, T/C: stronger effect = lower value
In short: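 Complex spheroids of tumor cells with HUVEC and human MSCs, exposed to iadademstat combined with other agents. Each agent tested in half-log steps from near clinical Cmax (else 10 microM top), DMSO ≤0.25%.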

[1] = second compound 0.1 µM, first compound 0.00316 µM
[2] = second compound 0.1 µM, first compound 0.01 µM
[3] = second compound 0.1 µM, first compound 0.0316 µM
[4] = second compound 0.1 µM, first compound 0.1 µM
[5] = second compound 0.316 µM, first compound 0.00316 µM
[6] = second compound 0.316 µM, first compound 0.01 µM
[7] = second compound 0.316 µM, first compound 0.0316 µM
[8] = second compound 0.316 µM, first compound 0.1 µM
[9] = second compound 1 µM, first compound 0.00316 µM
[10] = second compound 1 µM, first compound 0.01 µM
[11] = second compound 1 µM, first compound 0.0316 µM
[12] = second compound 1 µM, first compound 0.1 µM
[13] = second compound 3.16 µM, first compound 0.00316 µM
[14] = second compound 3.16 µM, first compound 0.01 µM
[15] = second compound 3.16 µM, first compound 0.0316 µM
[16] = second compound 3.16 µM, first compound 0.1 µM
[17] = second compound 10 µM, first compound 0.00316 µM
[18] = second compound 10 µM, first compound 0.01 µM
[19] = second compound 10 µM, first compound 0.0316 µM
[20] = second compound 10 µM, first compound 0.1 µM
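Further: spheroids exposed to agents for seven days.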
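Wherever viability, T/C is given: 100% = DMSO vehicle control wells.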

COc1cc(Nc2ncc3c(n2)-c2ccc(Cl)cc2C(c2c(F)cccc2OC)=NC3)ccc1C(=O)O + NC1CCC(NC2CC2c2ccccc2)CC1
IC50 (second compound 0.1 µM): 360 nM
IC50 (second compound 0.316 µM): 307 nM
IC50 (second compound 1 µM): 253 nM
IC50 (second compound 3.16 µM): 213 nM
IC50 (second compound 10 µM): 143 nM
viability, T/C [1]: 67.5%
viability, T/C [2]: 59.8%
viability, T/C [3]: 58.4%
viability, T/C [4]: 56.1%
viability, T/C (second compound 0.1 µM, first compound 0.316 µM): 54.9%
viability, T/C (second compound 0.1 µM, first compound 1 µM): 38.6%
viability, T/C [5]: 65.1%
viability, T/C [6]: 67.8%
viability, T/C [7]: 63.9%
viability, T/C [8]: 55%
viability, T/C (second compound 0.316 µM, first compound 0.316 µM): 50.1%
viability, T/C (second compound 0.316 µM, first compound 1 µM): 39.3%
viability, T/C [9]: 62.3%
viability, T/C [10]: 60.6%
viability, T/C [11]: 57%
viability, T/C [12]: 57.2%
viability, T/C (second compound 1 µM, first compound 0.316 µM): 46.9%
viability, T/C (second compound 1 µM, first compound 1 µM): 41.4%
viability, T/C [13]: 66.5%
viability, T/C [14]: 66.4%
viability, T/C [15]: 61.4%
viability, T/C [16]: 49%
viability, T/C (second compound 3.16 µM, first compound 0.316 µM): 53%
viability, T/C (second compound 3.16 µM, first compound 1 µM): 35.3%
viability, T/C [17]: 58.6%
viability, T/C [18]: 54.6%
viability, T/C [19]: 58.5%
viability, T/C [20]: 50.3%
viability, T/C (second compound 10 µM, first compound 0.316 µM): 46%
viability, T/C (second compound 10 µM, first compound 1 µM): 36.8%

Cn1ncnc1C1c2n[nH]c(=O)c3cc(F)cc(c23)NC1c1ccc(F)cc1 (stereo not given) + NC1CCC(NC2CC2c2ccccc2)CC1
IC50 (second compound 0.1 µM): > 100 nM
IC50 (second compound 0.316 µM): > 100 nM
IC50 (second compound 1 µM): > 100 nM
IC50 (second compound 3.16 µM): > 100 nM
IC50 (second compound 10 µM): > 100 nM
viability, T/C (second compound 0.1 µM, first compound 0.000316 µM): 97%
viability, T/C (second compound 0.1 µM, first compound 0.001 µM): 105%
viability, T/C [1]: 92.3%
viability, T/C [2]: 91.2%
viability, T/C [3]: 94%
viability, T/C [4]: 85.4%
viability, T/C (second compound 0.316 µM, first compound 0.000316 µM): 100%
viability, T/C (second compound 0.316 µM, first compound 0.001 µM): 94.7%
viability, T/C [5]: 99.6%
viability, T/C [6]: 91.6%
viability, T/C [7]: 87.4%
viability, T/C [8]: 91.9%
viability, T/C (second compound 1 µM, first compound 0.000316 µM): 91%
viability, T/C (second compound 1 µM, first compound 0.001 µM): 92.2%
viability, T/C [9]: 94.1%
viability, T/C [10]: 101%
viability, T/C [11]: 80.6%
viability, T/C [12]: 92.1%
viability, T/C (second compound 3.16 µM, first compound 0.000316 µM): 87.1%
viability, T/C (second compound 3.16 µM, first compound 0.001 µM): 87.2%
viability, T/C [13]: 89.3%
viability, T/C [14]: 79.5%
viability, T/C [15]: 84.9%
viability, T/C [16]: 80.8%
viability, T/C (second compound 10 µM, first compound 0.000316 µM): 73.9%
viability, T/C (second compound 10 µM, first compound 0.001 µM): 77.8%
viability, T/C [17]: 76.1%
viability, T/C [18]: 80.8%
viability, T/C [19]: 73.5%
viability, T/C [20]: 71.5%

NS(=O)(=O)OCC1CC(n2ccc3c(NC4CCc5ccccc54)ncnc32)CC1O (stereo not given) + NC1CCC(NC2CC2c2ccccc2)CC1
IC50 (second compound 0.1 µM): > 3000 nM
IC50 (second compound 0.316 µM): > 3000 nM
IC50 (second compound 1 µM): 2370 nM
IC50 (second compound 3.16 µM): 1500 nM
IC50 (second compound 10 µM): 545 nM
viability, T/C (second compound 0.1 µM, first compound 0.00949 µM): 117%
viability, T/C (second compound 0.1 µM, first compound 0.03 µM): 122%
viability, T/C (second compound 0.1 µM, first compound 0.0949 µM): 124%
viability, T/C (second compound 0.1 µM, first compound 0.3 µM): 91.3%
viability, T/C (second compound 0.1 µM, first compound 0.949 µM): 86.6%
viability, T/C (second compound 0.1 µM, first compound 3 µM): 58.4%
viability, T/C (second compound 0.316 µM, first compound 0.00949 µM): 119%
viability, T/C (second compound 0.316 µM, first compound 0.03 µM): 112%
viability, T/C (second compound 0.316 µM, first compound 0.0949 µM): 123%
viability, T/C (second compound 0.316 µM, first compound 0.3 µM): 99.8%
viability, T/C (second compound 0.316 µM, first compound 0.949 µM): 85.7%
viability, T/C (second compound 0.316 µM, first compound 3 µM): 50.4%
viability, T/C (second compound 1 µM, first compound 0.00949 µM): 99%
viability, T/C (second compound 1 µM, first compound 0.03 µM): 115%
viability, T/C (second compound 1 µM, first compound 0.0949 µM): 121%
viability, T/C (second compound 1 µM, first compound 0.3 µM): 92.2%
viability, T/C (second compound 1 µM, first compound 0.949 µM): 74.3%
viability, T/C (second compound 1 µM, first compound 3 µM): 43.7%
viability, T/C (second compound 3.16 µM, first compound 0.00949 µM): 103%
viability, T/C (second compound 3.16 µM, first compound 0.03 µM): 106%
viability, T/C (second compound 3.16 µM, first compound 0.0949 µM): 110%
viability, T/C (second compound 3.16 µM, first compound 0.3 µM): 84.8%
viability, T/C (second compound 3.16 µM, first compound 0.949 µM): 65.9%
viability, T/C (second compound 3.16 µM, first compound 3 µM): 28.8%
viability, T/C (second compound 10 µM, first compound 0.00949 µM): 86.7%
viability, T/C (second compound 10 µM, first compound 0.03 µM): 86.1%
viability, T/C (second compound 10 µM, first compound 0.0949 µM): 83.4%
viability, T/C (second compound 10 µM, first compound 0.3 µM): 62.1%
viability, T/C (second compound 10 µM, first compound 0.949 µM): 37.9%
viability, T/C (second compound 10 µM, first compound 3 µM): 15.2%
